Assay [1] has as its target T1, S-formylglutathione hydrolase (Sus scrofa) (UniProt Q9GJT2).
T1 sequence (whole entry): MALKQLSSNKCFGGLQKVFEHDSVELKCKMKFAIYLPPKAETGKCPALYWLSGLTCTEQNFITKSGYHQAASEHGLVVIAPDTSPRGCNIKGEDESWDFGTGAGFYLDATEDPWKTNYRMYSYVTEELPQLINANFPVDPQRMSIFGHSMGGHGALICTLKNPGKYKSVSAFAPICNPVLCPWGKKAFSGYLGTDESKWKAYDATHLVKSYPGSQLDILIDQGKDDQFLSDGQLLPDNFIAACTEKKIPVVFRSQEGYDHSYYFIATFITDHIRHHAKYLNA
The conditions noted are these: 45 nM.
Description: Tested for rate of substrate hydrolysis in the presence of porcine kidney esterase at a concentration of 45 nM

Assay [2] has as its target T2, Neutrophil elastase (Homo sapiens) (UniProt P08246).
T2 sequence (whole entry): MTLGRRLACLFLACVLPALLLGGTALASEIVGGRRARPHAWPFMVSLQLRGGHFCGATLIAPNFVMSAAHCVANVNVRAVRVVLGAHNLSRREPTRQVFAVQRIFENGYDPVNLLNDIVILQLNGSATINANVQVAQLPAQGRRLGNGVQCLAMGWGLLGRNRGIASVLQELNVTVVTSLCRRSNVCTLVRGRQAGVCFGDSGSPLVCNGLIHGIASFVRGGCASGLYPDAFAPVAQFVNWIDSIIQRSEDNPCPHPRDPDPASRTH
Kind of assay: Tested for rate of substrate hydrolysis in the presence of human neutrophil elastase at a concentration of 45 nM.

Assay [3] deals with T2, Neutrophil elastase (Homo sapiens). Kind of assay: Tested for rate of substrate hydrolysis in the presence of human neutrophil elastase at a concentration of 10 nM.
Assay [4] has as its target T1, S-formylglutathione hydrolase (Sus scrofa). To be noted: 10 nM.
Description: Tested for rate of substrate hydrolysis in the presence of porcine kidney esterase at a concentration of 10 nM
In assay [5] the target is T3, Neutrophil elastase (Homo sapiens, UniProt P08246).
T3 sequence (P08246 whole entry): T2 sequence (whole entry)
Kind of assay: Tested for rate of substrate hydrolysis in the presence of human neutrophil elastase.

The target in assay [6] is T2, Neutrophil elastase (Homo sapiens). Kind of assay: Tested for rate of substrate hydrolysis in the presence of human neutrophil elastase at a concentration of 1 uM.
The target in assay [7] is T1, S-formylglutathione hydrolase (Sus scrofa). Briefly: Tested for rate of substrate hydrolysis in the presence of porcine kidney esterase at a concentration of 9 uM.
Assay [8] addresses T2, Neutrophil elastase (Homo sapiens). Briefly: Tested for rate of substrate hydrolysis in the presence of human neutrophil elastase at a concentration of 9 uM.
Assay [9] has as its target T1, S-formylglutathione hydrolase (Sus scrofa). Kind of assay: Tested for rate of substrate hydrolysis in the presence of porcine kidney esterase at a concentration of 1 uM.

With `COC(=O)/C(OC(C)=O)=C(\NC(=O)[C@@H]1CCCN1C(=O)[C@H](C)NC(=O)[C@H](C)NC(=O)c1ccc(C(=O)NS(=O)(=O)c2ccc(Cl)cc2)cc1)C(C)C`, the Rate in assay [1] was 37%; in assay [2], 94%; in assay [3], 99%; in assay [4], 76%.
Turning to `COC(=O)CCC(=O)N[C@@H](C)C(=O)N[C@@H](C)C(=O)N1CCC[C@H]1C(=O)N[C@H](C(=O)C(=O)OC)C(C)C`, the inhibition constant Ki (as a rule, a measure of affinity in units of concentration, obtained from inhibition or displacement) in [5] was found to be 200 nM.
On the same count and under the same terms, next, `COC(=O)C(=O)[C@@H](NC(=O)C1CCCN1C(=O)[C@H](C)NC(=O)[C@H](C)NC(=O)c1ccc(C(=O)NS(=O)(=O)c2ccc(Cl)cc2)cc1)C(C)C` (stereo not given in full): 2 nM.
As to `COC(=O)CCC(=O)N[C@@H](C)C(=O)N[C@@H](C)C(=O)N1CCC[C@H]1C(=O)N/C(=C(/OC(C)=O)C(=O)OC)C(C)C`, the Rate in [6] worked out at 81%; in assay [7], 2.8%; in [8] it was 35%; in assay [9], 24%.

These data come from ChEMBL document CHEMBL1130975, “Preparation of alpha-keto ester enol acetates as potential prodrugs of human neutrophil elastase inhibitors” (Bioorg Med Chem Lett, 1998).
